In experiment [1] the test system is human large intestine cancer cell line (HCT-116). Put plainly: Human large intestine cancer (HCT-116) cell growth inhibition test. The class given is cell-based. The method, boiled down:
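HCT-116 cells were seeded at 0.5 to 2.0×10^3 cells/well in McCoy's 5A with 10% FBS and dosed with compound at 0.1% final DMSO after overnight culture. Growth was measured by sulforhodamine B absorbance after 3 days. GI50 was calculated from the inhibition rate at each concentration.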

In experiment [2] the test system is human large intestine cancer cell (HCT 116) tumor. Put plainly: Tumor growth inhibition test in HCT 116-subcutaneously transplanted nude mouse. The class given is in vivo. The note with it: dose of 100 mg/kg, repeated oral administration, HCT-116 in female BALB nude mice, control group = 100%, read-out: rate of suppression of tumor volume. The protocol: A human large intestine cancer cell line (HCT-116) was cultured in a McCoy's 5A medium containing 10% FBS and 1% penicillin/streptomycin/amphotericin B and adjusted to 1.0×10^8 cells/mL with PBS or Hanks solution (HBSS(−)). The prepared cell suspension was subcutaneously injected at 0.1 mL/mouse to the right abdomens of female BALB nude mice (supplied by Charles River Laboratories Japan, Inc.). After rearing for a certain period, the long diameter (mm) and short diameter (mm) of tumor were measured with electronic calipers, and the tumor volume was calculated according to the following expression: Tumor volume (mm^3)=(Long diameter)×(Short diameter)×(Short diameter)×0.5
Individuals whose tumor volume was within the range of 50 to 200 mm^3 were selected and grouped such that the tumor volume was almost equivalent, then a test compound or only a solvent was orally administered in a repeated manner, and the body weights and tumor volume were measured. A test compound was suspended in a 0.5 w/v % aqueous methylcellulose solution (0.5% MC) (manufactured by Wako Pure Chemical Industries, Ltd.) and orally administered at 10 mL/kg in a repeated manner. When the tumor volume of the control group was defined as 100%, the rate of suppression of tumor volume (%) at each dose of the test compound was calculated.

Another experiment has as its system IL-17 production. Put plainly: Human PBMC various-stimulant cocktail-induced IL-17 production inhibition test. The class given is cell-based. As to conditions: 120 h, human T-cell suspension from PBMC, culture for 5 days, ELISA. The source says:
PBMC was separated and collected by using Ficoll-Paque (manufactured by GE Healthcare Japan Corp.) from blood collected from a healthy human adult in the presence of heparin. The collected PBMC was further cultured in a flask for a certain time, and then, non-adherent cells in the supernatant were collected and used as a T-cell suspension.
A RPMI1640 medium containing 10% FBS, 1% penicillin/streptomycin/amphotericin B, essential amino acids, and pyruvic acid and containing a test compound dissolved in DMSO, a human CD28 antibody, a human IFN-γ antibody, a human IL-4 antibody, human IL-6, human IL-23, human IL-1β, and human TGF-β was added at 100 μL/well to T cell Activation Plate Anti-Human CD3 96-well plate. Subsequently, 100 μL of a T-cell suspension adjusted to 2×10^5 cells/mL was added to each well (final DMSO concentration: 0.1%). Only DMSO was added to wells not supplemented with the test compound. After culture for 5 days in a carbon dioxide incubator, the culture supernatant was collected and stored at −20° C. until IL-17 content measurement.
In the measurement of an IL-17 content in the culture supernatant, a sandwich ELISA kit (Quantikine Human IL-17, manufactured by R&D Systems, Inc.) was used. The IL-17 content of each sample was calculated from the calibration curve of Standard IL-17 included in the kit. […] The concentration of the test compound necessary for inhibiting 50% of IL-17 production (IC50 value) was calculated from the concentration of the added test compound and the rate of inhibition of IL-17 production by the test compound by using EXSUS (version 8.1.0, manufactured by CAC Exicare Corp.).
(ELISA stands for enzyme-linked immunosorbent assay.)

[3] abbreviates: HCT-116, 72 h, culture for 3 days, sulforhodamine B, read-out: GI50 value, HCT-116 cell growth inhibition.
Where [4] appears, read: HCT-116 (row of Table 50), read-out: GI50 value (concentration necessary for inhibiting 50% of cell growth).

Read-outs that look alike come from different tables or passages of the source.

As a reminder, the IC50 is the concentration at which inhibition is half-maximal. Read a high IC50 as weaker potency in that assay. Consider `CCc1cccc(C)c1NC(=O)N1Cc2c(NC(=O)C3([Si](C)(C)C)CCC3)n[nH]c2C1(C)C` [IV-389, N-(2-Ethyl-6-methylphenyl)-6,6-dimethyl-3-[1-(trimethylsilyl)cyclobutanecarboxamido]-4,6-dihydropyrrolo[3,4-c]pyrazole-5 (1H)-carboxamide], for which, in experiment [1] (setting [3]), the GI50 is at most 100 nM. In addition, the inhibition in vivo at 100 mg/kg in experiment [2] was at least 50%. In the experiment with IL-17 production, the half-inhibitory concentration (IC50) is at most 100 nM.

With `Cc1ccc(C)c(NC(=O)N2Cc3c(NC(=O)C4([Si](C)(C)C)CCC4)n[nH]c3C2(C)C)c1F` [IV-669, N-(2-Fluoro-3,6-dimethylphenyl)-6,6-dimethyl-3-[1-(trimethylsilyl)cyclobutanecarboxamido]-4,6-dihydropyrrolo[3,4-c]pyrazole-5(1H)-carboxamide], the GI50 was under 300 nM in experiment [1] (setting [4]) and at most 100 nM in experiment [1] (setting [3]). Further, the inhibition in vivo at 100 mg/kg in experiment [2] is at least 50%. Further, the IC50 in the experiment with IL-17 production is at most 100 nM.

Regarding `CC1(C)c2[nH]nc(NC(=O)C3([Si](C)(C)C)CCC3)c2CN1C(=O)Nc1c(F)ccc2ccoc12` [IV-1049, N-(6-Fluorobenzofuran-7-yl)-6,6-dimethyl-3-[1-(trimethylsilyl)cyclobutanecarboxamido]-4,6-dihydropyrrolo[3,4-c]pyrazole-5 (1H)-carboxamide], the GI50 is under 300 nM in experiment [1] (setting [4]) and at most 100 nM in experiment [1] (setting [3]). Moreover, in experiment [2], the inhibition in vivo at 100 mg/kg was at least 50%. In addition, the IC50 in the experiment with IL-17 production is at most 100 nM.

These data come from US10894798B2, “Substituted dihydropyrrolopyrazole derivative” (UBE INDUSTRIES, LTD., priority 2015, dated 2021).
